# Measurements taken from patent US10336762B2 (priority 2017, dated 2019).
# Where two headings read alike, the source gives them in different places.
# Columns and labels:
# TNFα = assay: cells; assay type: cell-based, human; conditions: LPS-stimulated human monocytes, read-out: EC50 TNF
# IRAK4 enzyme = IRAK4 enzyme (Homo sapiens (Human), UniProt Q9NWZ3); assay: biochemical; assay type: biochemical; conditions: IRAK4 enzyme, 500 μM ATP
# [1] = Homo sapiens, Monocyte, TNFα content
# [2] = Homo sapiens, Monocyte, TNFα by TR-FRET
# IRAK4 enzyme, sequence (Q9NWZ3 whole entry): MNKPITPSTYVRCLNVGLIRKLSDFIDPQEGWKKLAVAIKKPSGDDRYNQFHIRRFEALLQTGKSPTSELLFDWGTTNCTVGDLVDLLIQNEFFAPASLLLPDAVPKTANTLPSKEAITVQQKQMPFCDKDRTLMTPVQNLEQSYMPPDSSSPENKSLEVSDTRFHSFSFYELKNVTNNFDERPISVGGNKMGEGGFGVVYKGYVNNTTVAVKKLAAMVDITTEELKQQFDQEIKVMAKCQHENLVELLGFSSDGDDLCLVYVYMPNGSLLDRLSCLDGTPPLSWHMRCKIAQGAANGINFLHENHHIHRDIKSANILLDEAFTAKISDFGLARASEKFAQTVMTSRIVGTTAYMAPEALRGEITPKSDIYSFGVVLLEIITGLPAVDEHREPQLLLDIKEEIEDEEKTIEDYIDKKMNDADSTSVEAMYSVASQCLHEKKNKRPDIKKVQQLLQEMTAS
Compound,EC50 (TNFα; [1]),IC50 (IRAK4 enzyme; TR-FRET),further results
"CC(C)(O)[C@H](F)CNC(=O)c1cnc(-c2ccc3cc(C#N)cnn23)cc1Nc1nc(C(F)(F)F)cs1 [Example 374, (R)-6-(3-cyanopyrrolo[1,2-b]pyridazin-7-yl)-N-(2-fluoro-3-hydroxy-3-methylbutyl)-4-((4-(trifluoromethyl)thiazol-2-yl)amino)nicotinamide]",327 nM,1 nM,–
"CC(C)Nc1cc(-c2ccc3cc(C#N)cnn23)ncc1C(=O)NC1CCC(S(C)(=O)=O)CC1 (stereo not drawn) [Example 521, 6-(3-cyanopyrrolo[1,2-b]pyridazin-7-yl)-4-(iso-propylamino)-N-(4-(methylsulfonyl)cyclohexyl) nicotinamide]",717 nM,–,IC50 (IRAK4 enzyme; TR-FRET (HTRF)): 62 nM
"COC(=O)NC1CC2(C1)CC(Nc1cc(-c3ccc4cc(C#N)cnn34)ncc1C(=O)NC[C@@H](F)C(C)(C)O)C2 (single isomer, unassigned) [Example 756]",–,–,EC50 (TNFα; TNFα content): 59 nM; IC50 (IRAK4 enzyme; TR-FRET (HTRF)): 1 nM
"N#Cc1cnn2c(-c3cc(NC45CCC(O)(CC4)CC5)c(C(=O)NCC(=O)N4CC5(COC5)C4)cn3)ccc2c1 [Example 800, 6-(3-cyanopyrrolo[1,2-b]pyridazin-7-yl)-4-((4-hydroxybicyclo[2.2.2]octan-1-yl)amino)-N-(2-oxo-2-(2-oxa-6-azaspiro[3.3]heptan-6-yl)ethyl)nicotinamide]",–,3 nM,EC50 (TNFα; [2]): 133 nM
"CC(C)(O)[C@H](F)CNC(=O)c1cnc(-c2ccc3cc(C#N)cnn23)cc1N[C@H]1CC[C@H](NS(C)(=O)=O)CC1 [Example 315, 6-(3-cyanopyrrolo[1,2-b]pyridazin-7-yl)-N-((R)-2-fluoro-3-hydroxy-3-methylbutyl)-4-(((1r,4R)-4-(methylsulfonamido)cyclohexyl)amino)nicotinamide]",59 nM,< 1 nM,–
"CC(C)(O)[C@H](F)CNC(=O)c1cnc(-c2ccc3cc(C#N)cnn23)cc1NC1CCNCC1 [Example 23, (R)-6-(3-cyanopyrrolo[1,2-b]pyridazin-7-yl)-N-(2-fluoro-3-hydroxy-3-methylbutyl)-4-(piperidin-4-ylamino)nicotinamide]",676 nM,3 nM,–
"CNC(=O)c1cnc(-c2ccc3cc(C#N)cnn23)cc1NC12CCC(NC(C)=O)(CC1)CC2 [Example 482, 4-((4-acetamido-bicyclo[2.2.2]octan-1-yl)amino)-6-(3-cyano-pyrrolo[1,2-b]pyridazin-7-yl)-N-methylnicotinamide]",48 nM,–,IC50 (IRAK4 enzyme; TR-FRET (HTRF)): 1 nM
"N#Cc1cnn2c(-c3cc(NC45CCC(O)(CC4)CC5)c(C(=O)NCc4ncccn4)cn3)ccc2c1 [Example 933, 6-(3-cyanopyrrolo[1,2-b]pyridazin-7-yl)-4-((4-hydroxybicyclo[2.2.2]octan-1-yl)amino)-N-(pyrimidin-2-ylmethyl)nicotinamide]",–,4 nM,EC50 (TNFα; [2]): 269 nM
"CC(=O)N[C@H]1C[C@H](NC(=O)c2cnc(-c3ccc4cc(C#N)cnn34)cc2NC(C)C)C1 [Example 124, N-((1r,3r)-3-acetamido-cyclobutyl)-6-(3-cyano-pyrrolo[1,2-b]pyridazin-7-yl)-4-(isopropylamino) nicotinamide]",182 nM,3 nM,–
"CC(=O)NC[C@H]1CN(c2ccc(Nc3cc(-c4ccc5cc(C#N)cnn45)ncc3C(=O)NC[C@@H](F)C(C)(C)O)cn2)CCO1 [Example 886, 4-((6-((S)-2-(acetamido-methyl)morpholino)pyridin-3-yl)amino)-6-(3-cyano-pyrrolo[1,2-b]pyridazin-7-yl)-N-((R)-2-fluoro-3-hydroxy-3-methylbutyl) nicotinamide]",–,2 nM,EC50 (TNFα; [2]): 29 nM
"CC(C)(O)[C@H](F)CNC(=O)c1cnc(-c2ccc3cc(C#N)cnn23)cc1Nc1cccc(C(N)=O)c1 [Example 383, (R)-4-((3-carbamoyl-phenyl)amino)-6-(3-cyanopyrrolo[1,2-b]pyridazin-7-yl)-N-(2-fluoro-3-hydroxy-3-methylbutyl)nicotinamide]",144 nM,< 1 nM,–
"COC(=O)N1C[C@@H]2[C@H](C1)[C@H]2Nc1cc(-c2ccc3cc(C#N)cnn23)ncc1C(=O)NC[C@@H](F)C(C)(C)O [Example 722, (1R,5S,6s)-methyl 6-((2-(3-cyanopyrrolo[1,2-b]pyridazin-7-yl)-5-(((R)-2-fluoro-3-hydroxy-3-methyl-butyl)carbamoyl)pyridin-4-yl)amino)-3-aza-bicyclo[3.1.0]hexane-3-carboxylate]",35 nM,–,IC50 (IRAK4 enzyme; TR-FRET (HTRF)): < 1 nM
"CC(C)(O)[C@H](F)CNC(=O)c1cnc(-c2ccc3cc(C#N)cnn23)cc1NC1(CO)CC1 [Example 51, (R)-6-(3-cyanopyrrolo[1,2-b]pyridazin-7-yl)-N-(2-fluoro-3-hydroxy-3-methylbutyl)-4-((1-(hydroxymethyl)cyclopropyl)amino)nicotinamide]",159 nM,–,–
"CC(C)(O)[C@H](F)CNC(=O)c1cnc(-c2ccc3cc(C#N)cnn23)cc1NCCS(C)(=O)=O [Example 102, (R)-6-(3-cyanopyrrolo[1,2-b]pyridazin-7-yl)-N-(2-fluoro-3-hydroxy-3-methylbutyl)-4-((2-(methylsulfonyl)ethyl)amino) nicotinamide]",313 nM,–,–
"CC(C)Nc1cc(-c2ccc3cc(C#N)cnn23)ncc1C(=O)NCCC1COC1 [Example 52, 6-(3-cyanopyrrolo[1,2-b]pyridazin-7-yl)-4-(isopropylamino)-N-(2-(oxetan-3-yl)ethyl) nicotinamide]",86 nM,–,–
"CC(C)(O)[C@H](F)CNC(=O)c1cnc(-c2ccc3cc(C#N)cnn23)cc1NC1CC1 [Example 55, (R)-6-(3-cyanopyrrolo[1,2-b]pyridazin-7-yl)-4-(cyclopropylamino)-N-(2-fluoro-3-hydroxy-3-methylbutyl) nicotinamide]",28 nM,–,–
"(R)-4-((1H-benzo[d][1,2,3] triazol-5-yl)amino)-6-(3- cyanopyrrolo[1,2-b]pyridazin- 7-yl)-N-(2-fluoro-3- hydroxy-3-methylbutyl) nicotinamide [Example 569]",–,–,EC50 (TNFα; TNFα content): > 10000 nM
"6-(3-cyanopyrrolo[1,2-b]pyridazin-7-yl)-N-(2-(hydroxymethyl)cyclopropyl)-4-(isopropylamino)nicotinamide [Example 19]",–,–,EC50 (TNFα; TNFα content): 926 nM
"CC(C)(O)[C@H](F)CNC(=O)c1cnc(-c2ccc3cc(C#N)cnn23)cc1Nc1cnc(-c2cn[nH]c2)nc1 [Example 969, (R)-4-((2-(1H-pyrazol-4-yl)pyrimidin-5-yl)amino)-6-(3-cyanopyrrolo[1,2-b]pyridazin-7-yl)-N-(2-fluoro-3-hydroxy-3-methyl-butyl)nicotinamide]",–,< 1 nM,–
"CNc1cc(-c2ccc3cc(C#N)cnn23)ncc1C(=O)NC[C@@H](F)C(C)(C)O [Example 379, (R)-6-(3-cyanopyrrolo[1,2-b]pyridazin-7-yl)-N-(2-fluoro-3-hydroxy-3-methylbutyl)-4-(methyl-amino)nicotinamide]",57 nM,–,–
"CC(C)Nc1cc(-c2ccc3cc(C#N)cnn23)ncc1C(=O)NC1(C)COC1 [Example 35, 6-(3-cyanopyrrolo[1,2-b]pyridazin-7-yl)-4-(isopropyl-amino)-N-(3-methyloxetan-3-yl) nicotinamide]",–,3 nM,–
"6-(3-cyanopyrrolo[1,2- b]pyridazin-7-yl)-N-((R)- 2-fluoro-3-hydroxy-3- methylbutyl)-4-(((1s,3S)-3- hydroxyadamantan-1- yl)amino)nicotinamide [Example 525]",–,–,EC50 (TNFα; TNFα content): 11 nM
"CC(C)(O)[C@H](F)CNC(=O)c1cnc(-c2ccc3cc(C#N)cnn23)cc1Nc1cccc(OC(F)(F)F)c1 [Example 607, (R)-6-(3-cyanopyrrolo[1,2-b]pyridazin-7-yl)-N-(2-fluoro-3-hydroxy-3-methylbu1yl)-4-((3-(trifluoromethoxy)phenyl)amino)nicotinamide]",1440 nM,–,–
"CC(C)(O)[C@H](F)CNC(=O)c1cnc(-c2ccc3cc(C#N)cnn23)cc1Nc1cncc(OCC(F)F)c1 [Example 852, (R)-6-(3-cyanopyrrolo[1,2-b]pyridazin-7-yl)-4-((5-(2,2-difluoroethoxy)pyridin-3-yl)amino)-N-(2-fluoro-3-hydroxy-3-methylbutyl) nicotinamide]",–,–,EC50 (TNFα; [2]): 3 nM
"Cn1cc(Nc2cc(-c3ccc4cc(C#N)cnn34)ncc2C(=O)NC[C@@H](F)C(C)(C)O)ccc1=O [Example 441, (R)-6-(3-cyanopyrrolo[1,2-b]pyridazin-7-yl)-N-(2-fluoro-3-hydroxy-3-methylbutyl)-4-((1-methyl-6-oxo-1,6-dihydropyridin-3-yl)amino)nicotinamide]",1300 nM,–,–
"N#Cc1cnn2c(-c3cc(N[C@H]4CCC[C@@H](O)C4)c(C(=O)NC4CCC(F)(F)CC4)cn3)ccc2c1 [Example 431, 6-(3-cyanopyrrolo[1,2-b]pyridazin-7-yl)-N-(4,4-difluorocyclohexyl)-4-(((1S,3R)-3-hydroxy-cyclohexyl)amino) nicotinamide]",441 nM,–,–
"CC(C)(O)[C@H](F)CNC(=O)c1cnc(-c2ccc3cc(C#N)cnn23)cc1Nc1ccc(-n2nccn2)cc1 [Example 774, (R)-4-((4-(2H-1,2,3-triazol-2-yl)phenyl)amino)-6-(3-cyanopyrrolo[1,2-b]pyridazin-7-yl)-N-(2-fluoro-3-hydroxy-3-methylbutyl)nicotinamide]",–,–,IC50 (IRAK4 enzyme; TR-FRET (HTRF)): 2 nM
"CC(=O)NCC(F)(F)CNC(=O)c1cnc(-c2ccc3cc(C#N)cnn23)cc1NC(C)C [Example 551, N-(3-acetamido-2,2-difluoropropyl)-6-(3-cyanopyrrolo[1,2-b]pyridazin-7-yl)-4-(isopropylamino)nicotinamide]",809 nM,–,–
CC(C)(O)[C@H](F)CNC(=O)c1cnc(-c2ccc3cc(C#N)cnn23)cc1Nc1nc2ccccc2s1 [Example 377],426 nM,–,–
CNC(=O)OC[C@@H]1C[C@H]1Nc1cc(-c2ccc3cc(C#N)cnn23)ncc1C(=O)NC[C@@H](F)C(C)(C)O [Example 747],169 nM,–,–
